Experiments:
Assay in all cases: relative viability (nuclei count vs DMSO), 5 days (fraction); higher = more cells survive
Crizotinib + Foretinib = compound: C[C@@H](Oc1cc(-c2cnn(C3CCNCC3)c2)cnc1N)c1c(Cl)ccc(F)c1Cl [Crizotinib] + COc1cc2c(Oc3ccc(NC(=O)C4(C(=O)Nc5ccc(F)cc5)CC4)cc3F)ccnc2cc1OCCCN1CCOCC1 [Foretinib] (partner 0.25 µM)
Procedure, shortened: (§1)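 Cells from lung cancer lines were seeded into 1536-well plates and, one day later, dosed by pin tool. Treatments were either a single drug or a fixed dose of an anchor drug with five library-drug doses (not always all listed) in √10 steps. After 5 days, nuclei were stained in a one-step fixation (final 0.05% Triton X-100, 1% formaldehyde, 1 ug/ml Hoechst) and counted on 4× images, and relative viability is the treated-to-vehicle nuclei ratio, as the median of duplicate plates.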

Crizotinib + Luminespib = compound: C[C@@H](Oc1cc(-c2cnn(C3CCNCC3)c2)cnc1N)c1c(Cl)ccc(F)c1Cl [Crizotinib] + CCNC(=O)c1noc(-c2cc(C(C)C)c(O)cc2O)c1-c1ccc(CN2CCOCC2)cc1 [Luminespib] (partner 0.01 µM)
Procedure, shortened: as §1

Crizotinib + Navitoclax = compound: C[C@@H](Oc1cc(-c2cnn(C3CCNCC3)c2)cnc1N)c1c(Cl)ccc(F)c1Cl [Crizotinib] + CC1(C)CCC(c2ccc(Cl)cc2)=C(CN2CCN(c3ccc(C(=O)NS(=O)(=O)c4ccc(N[C@H](CCN5CCOCC5)CSc5ccccc5)c(S(=O)(=O)C(F)(F)F)c4)cc3)CC2)C1 [Navitoclax] (partner 0.5 µM)
Procedure, shortened: as §1

Olaparib + Vorinostat = compound: O=C(c1cc(Cc2n[nH]c(=O)c3ccccc23)ccc1F)N1CCN(C(=O)C2CC2)CC1 [Olaparib] + O=C(CCCCCCC(=O)Nc1ccccc1)NO [Vorinostat] (partner 1 µM)
Procedure, shortened: as §1

Cell Line	relative viability (Crizotinib + Foretinib; first compound 0.01 µM)	relative viability (Crizotinib + Foretinib; first compound 0.03162 µM)	relative viability (Crizotinib + Foretinib; first compound 0.1 µM)	relative viability (Crizotinib + Foretinib; first compound 0.3162 µM)	relative viability (Crizotinib + Foretinib; first compound 1 µM)	relative viability (Crizotinib + Luminespib; first compound 0.01 µM)	relative viability (Crizotinib + Luminespib; first compound 0.03162 µM)	relative viability (Crizotinib + Luminespib; first compound 0.1 µM)	relative viability (Crizotinib + Luminespib; first compound 0.3162 µM)	relative viability (Crizotinib + Luminespib; first compound 1 µM)	relative viability (Crizotinib + Navitoclax; first compound 0.01 µM)	relative viability (Crizotinib + Navitoclax; first compound 0.03162 µM)	relative viability (Crizotinib + Navitoclax; first compound 0.1 µM)	relative viability (Crizotinib + Navitoclax; first compound 0.3162 µM)	relative viability (Crizotinib + Navitoclax; first compound 1 µM)	relative viability (Olaparib + Vorinostat; first compound 0.08 µM)	relative viability (Olaparib + Vorinostat; first compound 0.253 µM)	relative viability (Olaparib + Vorinostat; first compound 2.53 µM)	relative viability (Olaparib + Vorinostat; first compound 8 µM)
NCI-H1975	0.941	1.03	0.902	0.962	0.975	0.144	0.148	0.167	0.223	0.178	0.965	1.06	1.03	1.26	1.06	0.739	0.649	0.717	0.624
NCI-H1993	0.848	0.9	0.741	0.827	0.82	0.905	0.889	–	0.852	–	0.769	0.897	0.669	0.831	0.805	0.962	0.869	0.82	0.88
NCI-H2009	1.21	1.17	1.13	1.19	1.23	0.994	1.02	0.988	1.01	1.08	1.1	1.16	1.17	1.21	1.22	0.836	0.666	0.674	0.645
NCI-H2023	0.745	0.799	0.787	0.848	0.939	0.714	0.754	0.61	0.58	0.592	0.98	0.985	0.994	0.932	–	0.734	0.531	0.507	0.315
NCI-H2085	0.822	0.809	0.906	–	0.987	0.551	0.394	0.431	–	0.428	1.02	1.09	1.03	1.07	1.2	0.844	0.703	0.749	0.616
NCI-H2087	1.12	1.12	1.03	–	1.24	0.18	0.181	0.168	–	0.134	0.828	0.996	1.09	0.888	1.19	0.834	0.761	0.658	0.546
NCI-H2126	1.03	1.18	1.12	1.1	1.18	0.717	0.886	–	0.861	0.916	0.834	0.826	0.842	0.759	0.832	0.803	0.773	0.819	0.777
NCI-H2170	0.965	0.991	0.999	1.02	1.01	0.914	0.806	0.649	0.606	0.511	0.536	0.603	0.574	0.468	0.632	0.811	0.754	0.748	0.748
NCI-H2228	0.872	0.997	0.699	0.81	0.434	0.119	0.16	0.132	0.122	0.119	1.01	1.2	0.648	0.996	0.409	0.587	0.541	0.742	0.449
NCI-H2347	0.689	0.918	1.03	0.656	1.06	0.212	0.458	0.482	0.681	0.404	0.682	0.734	0.849	0.799	0.852	0.577	0.568	0.588	0.398
NCI-H2405	1.02	1.06	1.05	1.09	1.06	0.629	0.706	0.697	0.785	0.806	0.816	0.815	0.79	0.858	0.862	1.28	0.957	0.997	0.926
NCI-H3122	0.94	0.925	0.978	0.873	0.924	0.119	0.0745	0.0793	0.0767	0.105	0.99	0.993	1.04	1.02	–	1.17	0.932	0.986	0.789
PC-3 [JPC-3]	0.969	1.05	1.01	0.992	0.986	0.727	0.649	0.741	0.678	0.78	0.809	0.807	0.815	0.684	0.858	0.923	–	0.943	0.942
PC-14	0.894	1.01	–	0.926	0.999	0.156	0.152	0.183	0.186	0.168	0.983	0.96	0.991	1.04	0.998	0.889	0.579	0.709	0.34
RERF-LC-KJ	0.824	0.896	1.33	0.817	0.887	1.22	1.31	1.29	1.21	1.21	1.18	0.767	1.13	0.682	1.02	0.79	0.644	0.748	0.633
SK-LU-1	0.822	0.778	0.787	0.902	0.848	0.208	0.195	0.225	0.224	0.206	0.829	0.851	0.887	0.938	0.806	0.847	0.705	0.726	0.545
SK-MES-1	0.875	0.919	0.941	0.798	0.843	0.669	0.827	0.771	0.712	0.76	1.2	1.29	1.25	–	1.2	1.04	0.985	1.06	0.914
